Source: publication doi:10.1101/2025.04.13.648610v1, “Catalytic Mechanism and Differential Alarmone Regulation of a Conserved Stringent Nucleosidase” (biorxiv, 2025)
Residue numbers refer to the chain shown, from its start.

Tests used:
Type in all cases: binding
PpnN (previously YgdH) [1] = target: T1, PpnN (previously YgdH) (Escherichia coli, UniProt P0ADR8); assay: X-ray crystal structure […] Å
T1 construct: full length, N-terminal His6 tag, plasmid pCA24N-ppnN, expressed in E. coli BL21(DE3) ppnN::kan; homotetramer; domains PAG1 1-150, catalytic 151-329, PAG2 330-454
T1 sequence (P0ADR8 1-454): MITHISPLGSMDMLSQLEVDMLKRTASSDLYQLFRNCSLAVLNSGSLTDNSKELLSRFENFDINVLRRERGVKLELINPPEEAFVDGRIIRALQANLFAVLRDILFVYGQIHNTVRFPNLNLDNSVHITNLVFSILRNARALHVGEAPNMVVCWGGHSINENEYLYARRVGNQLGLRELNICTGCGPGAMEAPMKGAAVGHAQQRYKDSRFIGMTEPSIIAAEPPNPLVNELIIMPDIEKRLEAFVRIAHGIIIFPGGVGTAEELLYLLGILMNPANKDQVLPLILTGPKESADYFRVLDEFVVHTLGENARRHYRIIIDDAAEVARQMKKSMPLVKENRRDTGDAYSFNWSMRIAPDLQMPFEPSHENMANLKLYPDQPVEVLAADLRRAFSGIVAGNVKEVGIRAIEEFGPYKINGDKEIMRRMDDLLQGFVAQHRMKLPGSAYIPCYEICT

PpnN (previously YgdH) [2] = target: T1, PpnN (previously YgdH); assay: X-ray crystal structure
PpnN (previously YgdH) [3] = target: T2, PpnN (previously YgdH) (Escherichia coli, UniProt P0ADR8, E264A); assay: X-ray crystal structure […] Å
T2 construct: full length, N-terminal His6 tag, plasmid pCA24N-ppnN, expressed in E. coli BL21(DE3) ppnN::kan; homotetramer; domains PAG1 1-150, catalytic 151-329, PAG2 330-454
T2 sequence (P0ADR8 1-454 E264A): T1 sequence (P0ADR8 1-454) with E264A

**Q.** For `Nc1nc2c(ncn2[C@@H]2O[C@H](COP(=O)(O)OP(=O)(O)O)[C@@H](OP(=O)(O)OP(=O)(O)O)[C@H]2O)c(=O)[nH]1` [ppGpp], which “X-ray crystal structure 3.4 Å” value (PpnN (previously YgdH) [1]; allosteric alarmone site at dimer interface, four of four sites, with 9-deaza-GMP) is on record?
**A.** All four canonical alarmone binding sites are occupied by ppGpp

**Q.** For `Nc1nc2c(ncn2[C@@H]2O[C@H](COP(=O)(O)OP(=O)(O)OP(=O)(O)O)[C@@H](OP(=O)(O)OP(=O)(O)O)[C@H]2O)c(=O)[nH]1` [pppGpp], which X-ray crystal structure (PpnN (previously YgdH) [2]; allosteric alarmone site at dimer interface, three of four sites) is on record?
**A.** pppGpp was bound to three out of four PpnN molecules

**Q.** What about the “X-ray crystal structure 3.5 Å” value (PpnN (previously YgdH) [3]; allosteric alarmone site at dimer interface, four of four sites, co-crystallised with GMP) of the same molecule?
**A.** all four alarmone sites are occupied by pppGpp

**Q.** With `Nc1nc2c([C@@H]3O[C@H](COP(=O)(O)O)[C@@H](O)[C@H]3O)c[nH]c2c(=O)[nH]1` [9-deaza-GMP] as the molecule, how does the “X-ray crystal structure 3.4 Å” value (PpnN (previously YgdH) [1]; second dimer interface (two sites per tetramer), not the active site, with ppGpp) read?
**A.** an elongated electron density was found into which 9dG could be modelled

**Q.** `Nc1nc2[nH]cnc2c(=O)[nH]1` [guanine] was tested. Which X-ray crystal structure (PpnN (previously YgdH) [2]; active sites of the three open monomers, carried over, GMP not added, modelled into density) did it give?
**A.** guanine into the smaller densities

**Q.** Which results are given for `O=P(O)(O)OC[C@H]1OC(O)[C@H](O)[C@@H]1O` (stereo partly shown) [ribose 5-phosphate]?
**A.** X-ray crystal structure (PpnN (previously YgdH) [2]; active site of the partially open monomer, carried over, GMP not added, modelled into density): ribose-5-phosphate (R5P) into the bilobed density; X-ray crystal structure 3.5 Å (PpnN (previously YgdH) [3]; active site, four of four, from GMP added to the crystallisation): likely corresponding to the product, R5P
